The record followed here is patent publication US8580268B2, “CpG oligonucleotide analogs containing hydrophobic T analogs with enhanced immunostimulatory activity” (Coley Pharmaceutical GmbH, priority 2006, dated 2013).

In one series the test system is BALB/c mice. Kind of series: In vivo murine IFN-alpha induction after SC injection (ELISA). The note with it: bled at 3 hr post injection. On the set-up: species or system mouse. The protocol: Female BALB/c mice (6-8 weeks of age) were purchased from Charles River Canada (Quebec, Canada) and housed in micro-isolators in the Animal Care Facility at Coley Pharmaceutical Group Canada. All studies were conducted in accordance with the Animal Care Committee of Coley Canada under the guidance of the Canadian Council on Animal Care. All animals were naïve to CpG ODNs.
In order to determine the effect of the modified P-class ODN in vivo, BALB/c mice (5 per group) were injected SC with differing doses of ODN. Animals were bled at 3 hr post injection and plasma tested for IFN-alpha by ELISA. The activity of modified P-class ODN (SEQ ID NO:58, 60-62, 64, and 67) was compared to that of a B-class negative control (SEQ ID NO:55) and a negative control (SEQ ID NO:26).

Series [1] deals with human PBMC. Kind of series: IL-6 induction in human PBMC (luminex). It is filed as cell-based. The conditions noted are these: human PBMC from three donors, 24 h. The protocol:
(§1) Peripheral blood buffy coat preparations from healthy human donors were obtained from the Blood Bank of the University of Düsseldorf (Germany) and PBMC were purified by centrifugation over Ficoll-Hypaque (Sigma). Cells were cultured in a humidified incubator at 37° C. in RPMI 1640 medium supplemented with 5% (v/v) heat inactivated human AB serum (BioWhittaker) or 10% (v/v) heat inactivated FCS, 2 mM L-glutamine, 100 U/ml penicillin and 100 μg/ml streptomycin (all from Sigma).
(§2) PBMC were resuspended at a concentration of 5×10^6 cells/ml and added to 96 well round-bottomed plates […]. PBMC were incubated with ODN and culture supernatants (SN) were collected after the indicated time points. If not used immediately, SN were stored at −20° C. until required.
(§3) Amounts of cytokines in the SN were assessed using an in-house ELISA for IFN-α developed using commercially available antibody (PBL, New Brunswick, N.J., USA) or on the Luminex multiplex system (Luminex Corporation, 12212 Technology Boulevard, Austin, Tex. 78727-6115).
Next the modified P-class ODN were tested for the ability to induce IL-6 in human PBMC. PBMC from three donors were incubated with ODN at concentrations as indicated for 24 h, followed by luminex 25-plex analysis of the supernatants for IL-6. The activity of modified P-class ODN (SEQ ID NO:58, 60-62, FIG. 28a) (SEQ ID NO:64 and 67, FIG. 28b) was compared to that of an unmodified B-class ODN (SEQ ID NO:55), and unmodified C-class ODN (SEQ ID NO:54), a negative control ODN (SEQ ID NO:53), and an unmodified P-class ODN (SEQ ID NO:56).

In a further series the test system is SaI/N tumor cells. Kind of series: Mouse SA1N tumor model. It is filed as in vivo. The note with it: A/J mice. The protocol: SA1N tumor model: Female A/J mice (10 per group) were injected SC with 5×10^5 SaI/N tumor cells on day 0. Mice were treated with 100 μg ODN or PBS alone given SC once weekly starting on day 8 post tumor induction. Animals were monitored for survival and tumor volume. Tumor size (the length and the width) was measured using a digital vernier caliper. Tumor volume was calculated by using the formula: Tumor volume=(0.4) (ab2), where a=large diameter and b=smaller diameter.
Next the modified P-class ODN were evaluated for their ability to reduce tumor volume mouse SA1N tumor model. Female A/J mice (10 per group) were injected SC with 5×10^5 SaI/N tumor cells on day 0. Mice were treated with 35 μg (FIG. 31a) or 100 μg (FIG. 31b) P-class ODN with a lipophilic substituted nucleotide analog (SEQ ID NO:60, 64, and 67), an unmodified C-class ODN, an unmodified B-class ODN (SEQ ID NO:55), or PBS alone. ODN were given SC once weekly starting on day 8 post tumor induction. Animals were monitored for survival and tumor volume.

The target of a further series is T1, human TLR9 (Homo sapiens, UniProt Q9NR96).
T1 construct: expressed in transfected cells
T1 sequence (Q9NR96 26-1032): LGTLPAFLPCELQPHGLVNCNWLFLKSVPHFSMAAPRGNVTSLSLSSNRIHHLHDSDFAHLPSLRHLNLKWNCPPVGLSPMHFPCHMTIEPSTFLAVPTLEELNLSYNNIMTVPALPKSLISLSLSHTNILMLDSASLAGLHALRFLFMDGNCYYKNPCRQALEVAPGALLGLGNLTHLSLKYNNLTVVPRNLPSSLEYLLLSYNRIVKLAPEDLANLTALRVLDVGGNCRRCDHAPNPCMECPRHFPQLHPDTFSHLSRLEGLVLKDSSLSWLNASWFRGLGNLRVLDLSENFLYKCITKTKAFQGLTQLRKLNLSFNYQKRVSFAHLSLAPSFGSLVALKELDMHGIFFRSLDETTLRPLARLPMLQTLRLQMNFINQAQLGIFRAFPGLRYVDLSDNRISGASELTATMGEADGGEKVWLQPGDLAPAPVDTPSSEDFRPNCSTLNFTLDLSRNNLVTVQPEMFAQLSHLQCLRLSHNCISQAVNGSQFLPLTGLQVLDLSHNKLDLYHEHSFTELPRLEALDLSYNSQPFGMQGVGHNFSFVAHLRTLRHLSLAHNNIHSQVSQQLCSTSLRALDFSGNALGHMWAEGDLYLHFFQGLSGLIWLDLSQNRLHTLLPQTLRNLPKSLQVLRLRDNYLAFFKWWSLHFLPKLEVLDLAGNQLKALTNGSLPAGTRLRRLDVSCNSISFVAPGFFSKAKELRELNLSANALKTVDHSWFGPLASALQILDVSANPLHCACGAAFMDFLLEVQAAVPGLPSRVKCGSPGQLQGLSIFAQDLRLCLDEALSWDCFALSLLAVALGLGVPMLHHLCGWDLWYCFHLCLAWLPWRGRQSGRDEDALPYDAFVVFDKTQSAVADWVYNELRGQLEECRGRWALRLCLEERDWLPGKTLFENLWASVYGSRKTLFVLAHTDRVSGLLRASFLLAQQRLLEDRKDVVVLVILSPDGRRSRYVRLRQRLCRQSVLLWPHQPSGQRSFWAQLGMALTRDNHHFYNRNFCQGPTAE
Kind of series: TLR9 luciferase assay (NF-κB reporter) in hTLR9-LUC-293 cells. In kind it is cell-based. The conditions noted are these: 16 h, stated in words relative to the comparator ODN. The protocol:
HEK293 cells were transfected by electroporation with vectors expressing the respective human TLR and a 6xNF-κB-luciferase reporter plasmid. Stable transfectants (3×10^4 cells/well) were incubated indicated amounts of ODN for 16 h at 37° C. in a humidified incubator. Each data point was done in triplicate. Cells were lysed and assayed for luciferase gene activity (using the BriteLite kit from Perkin-Elmer, Zaventem, Belgium). Stimulation indices were calculated in reference to reporter gene activity of medium without addition of ODN.

The subject of series [2] is human PBMC. Briefly: IFN-alpha production in human PBMC (ELISA). It is filed as cell-based. The protocol:
as §1, §2, §3
(In general: ELISA stands for enzyme-linked immunosorbent assay.)

Where [3] appears, read: 35 μg ODN SC once weekly from day 8.
The mark [4] stands for this setting: 100 μg ODN SC once weekly from day 8.

Entries after “also recorded” stand apart in the source; their conditions may differ. Strand notation (5' to 3'): a small letter for the sugar, then the base; units joined by * are phosphorothioate-linked, units joined directly phosphodiester-linked; [ ] holds rarer units or linkages, { } end groups; capitals alone tell only the bases. [5IU] = 5-iodo-2'-deoxyuridine (JU); [5EtU] = 5-ethyl-2'-deoxyuridine (EU); d = 2'-deoxy (DNA)

As for “JU*C-G*A*C*G*T*C*G*A*T*C*G*G*C*G*C*G*C*G*C*C*G (DNA d[5IU]*dCdG*dA*dC*dG*dT*dC*dG*dA*dT*dC*dG*dG*dC*dG*dC*dG*dC*dG*dC*dC*dG) [SEQ ID NO:58, JU-modified P-class]”, the “plasma IFN-alpha induction” value with BALB/c mice is listed as “slightly higher IFN-alpha induction”. Moreover, in the series on human PBMC [1], the IL-6 induction result is given as “slightly higher activation of IL-6”.

As for “EU*C-G*A*C*G*T*C*G*A*T*C*G*G*C*G*C*G*C*G*C*C*G (DNA d[5EtU]*dCdG*dA*dC*dG*dT*dC*dG*dA*dT*dC*dG*dG*dC*dG*dC*dG*dC*dG*dC*dC*dG) [SEQ ID NO:64, EU-modified P-class]”, the “reduction in tumor volume” value is recorded as “greatest reduction in tumor volume” in the series with SaI/N tumor cells (setting [3]) and “effective in reducing tumor volume” in the series on SaI/N tumor cells (setting [4]). For the same substance, in the series with human TLR9, the “TLR9 stimulation (NF-κB luciferase activity, relative stimulation index)” value is “higher degree of TLR9 stimulation than the unmodified P class ODN”.

For the substance “JU*C-G*A*C*G*T*C*G*A*T*C*G*G*C*G*C*G*C*G*C*C*G*T (DNA d[5IU]*dCdG*dA*dC*dG*dT*dC*dG*dA*dT*dC*dG*dG*dC*dG*dC*dG*dC*dG*dC*dC*dG*dT) [SEQ ID NO:60, JU-modified P-class]”, the “reduction in tumor volume” value is “greatest reduction in tumor volume” with SaI/N tumor cells (setting [3]) and “effective in reducing tumor volume” in the series with SaI/N tumor cells (setting [4]). In the series with BALB/c mice, the “plasma IFN-alpha induction” value is “slightly higher IFN-alpha induction”. Further, the IL-6 induction entry in the series with human PBMC [1] is recorded as “slightly higher activation of IL-6”.

With “JU*C*G*T*C*G*A*C*G*A*T*C*G*G*C*G*G*C*C*G*C*C*G*T (DNA d[5IU]*dC*dG*dT*dC*dG*dA*dC*dG*dA*dT*dC*dG*dG*dC*dG*dG*dC*dC*dG*dC*dC*dG*dT) [SEQ ID NO:67, JU-modified fully phosphorothioate P-class]”, the “reduction in tumor volume” value was “greatest reduction in tumor volume” in the series with SaI/N tumor cells (setting [3]) and “effective in reducing tumor volume” in the series on SaI/N tumor cells (setting [4]). Also, the “TLR9 stimulation (NF-κB luciferase activity, relative stimulation index)” value with human TLR9 is reported as “higher degree of TLR9 stimulation than the unmodified P class ODN”. The IL-6 induction result in the series on human PBMC [1] is “slightly higher activation of IL-6”.

Consider “T*G*T*C-G*T*T*T*T*T*T*T*T*T*T*T*T*T*T*T (DNA dT*dG*dT*dCdG*dT*dT*dT*dT*dT*dT*dT*dT*dT*dT*dT*dT*dT*dT*dT) [SEQ ID NO:1, reference compound]”, for which, in the series on human PBMC [2] (human PBMC, 24 h, supernatants by ELISA, B-class ODN), the IFN-alpha production result is “virtually inactive”.

For “JU*C-G*T*C*G*A*C*G*A*T*C*G*G*C*G*G*C*C*G*C*C*G*T (DNA d[5IU]*dCdG*dT*dC*dG*dA*dC*dG*dA*dT*dC*dG*dG*dC*dG*dG*dC*dC*dG*dC*dC*dG*dT) [SEQ ID NO:66, JU-modified P-class with phosphodiester bond in the CG dinucleotide]”, in the series with human TLR9, the “TLR9 stimulation (NF-κB luciferase activity, relative stimulation index)” value is “higher degree of TLR9 stimulation than the unmodified P class ODN; also recorded: reduced activity compared to the fully phosphorothioate SEQ ID NO:67”. Also, the IFN-alpha induction entry with human PBMC [2] (human PBMC incubated 48 hours, ELISA, P-class ODN) is given as “reduced activity compared to SEQ ID NO:67”.

Turning to “JU*C*G*A*C*G*T*C*G*A*T*C*G*G*C*G*C*G*C*G*C*C*G*T (DNA d[5IU]*dC*dG*dA*dC*dG*dT*dC*dG*dA*dT*dC*dG*dG*dC*dG*dC*dG*dC*dG*dC*dC*dG*dT) [SEQ ID NO:61, JU-modified P-class]”, the “plasma IFN-alpha induction” value in the series on BALB/c mice is reported as “slightly higher IFN-alpha induction”. The IL-6 induction entry in the series on human PBMC [1] is reported as “slightly higher activation of IL-6”.

As for “T*G*EU*C-G*EU*T*T*T*T*T*T*T*T*T*T*T*T*T*T (DNA TGNCGNTTTTTTTTTTTTTT; EU modifications, chemistry not fully specified) [SEQ ID NO:30]”, in the series with human TLR9, the “TLR9 stimulation (NF-κB luciferase activity, relative stimulation index)” value was “significant increase in TLR9 activation”.
